Patent publication US9725414B2, “Fungicidal N-bicycloalkyl and N-tricycloalkyl pyrazole-4-(thio)carboxamide derivatives” (priority 2011, dated 2017)

Legend:
Septoria tritici = experiment: Example I: in vivo preventive test on Septoria tritici (wheat), acetone/tween/DMSO preparation; conditions: 500 ppm of active ingredient, grading 24 days after contamination
Summary of the method: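 Scipion wheat grown at 22° C, sprayed at 1-leaf stage (10 cm); controls received acetone/tween/DMSO/water without active. Inoculated 24 h later with S. tritici spores (500 000/mL), held 72 h at 18° C, 100% RH, then 21 days at 90% RH. % efficacy vs controls scored 24 days post-inoculation.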

Uromyces appendiculatus = experiment: Example Q: in vivo preventive test on Uromyces appendiculatus (bean rust); conditions: Uromyces appendiculatus on bean plants, 500 ppm of active ingredient, grading 11 days after contamination
Summary of the method: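 Saxa bean plants at 2-leaf stage, grown at 24° C., sprayed preventively with compound; 24 h later inoculated with U. appendiculatus spores (150 000 spores per mL). Percent efficacy graded 11 days after inoculation versus solvent-treated controls.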

Sphaerotheca fuliginea = experiment: Example B: in vivo preventive test on Sphaerotheca fuliginea (powdery mildew on cucurbits), gherkin plants; conditions: 500 ppm of active ingredient, grading 12 days after contamination
Summary of the method: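 Gherkin plants grown at 24 °C were sprayed with compound at the Z11 cotyledon stage; controls received acetone/tween/DMSO/water without active. 24 h later, cotyledons were inoculated by spraying with Sphaerotheca fuliginea spores (100 000 spores per mL).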

Botrytis cinerea [1] = experiment: Example P: in vivo preventive test on Botrytis cinerea (grey mould), gherkin plants; conditions: 500 ppm of active ingredient, grading 4 to 5 days after contamination
Summary of the method: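 Gherkin plants at Z11 cotyledon stage sprayed preventively with active ingredient, then inoculated 24 h later with B. cinerea spores (50 000/mL) in PDB/fructose nutrient solution. Incubation at 17 °C and 90% RH; % efficacy graded 4–5 days post-inoculation against solvent-treated controls.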

Puccinia recondita = experiment: Example M: in vivo preventive test on Puccinia recondita (brown rust on wheat); conditions: 500 ppm of active ingredient, grading 12 days after contamination
Summary of the method: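 Wheat (Scipion) sprayed with compound at 1-leaf stage, grown at 22° C. Inoculated 24 h later with a spore suspension at 100 000 spores per mL. Efficacy (%) graded 12 days after inoculation against solvent-treated controls.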

Pyrenophora teres = experiment: Example F: in vivo preventive test on Pyrenophora teres (barley), acetone/tween/DMSO preparation; conditions: 500 ppm of active ingredient, barley, grading 14 days after contamination
Summary of the method: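 Barley ("Plaisant") grown at 22° C was sprayed at the 1-leaf stage (10 cm) with active ingredient in acetone/tween/DMSO/water, with solvent-only controls. After 24 h, leaves were inoculated with Pyrenophora teres spores (12 000 spores per mL) from 12-day cultures. % efficacy versus controls graded 14 days post-contamination.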

Alternaria brassicae = experiment: Example D: in vivo preventive test on Alternaria brassicae (leaf spot on radish); conditions: 500 ppm of active ingredient, grading 6 days after contamination
Summary of the method: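 Radish plants at cotyledon stage were sprayed with compound; controls got the acetone/tween/DMSO/water mix alone. After 24 h they were inoculated with Alternaria brassicae spores (50 000 spores per mL) and kept at 20 °C, 100% relative humidity. % efficacy versus controls was graded 6 days post-inoculation.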

Botrytis cinerea [2] = experiment: Example O: in vivo protective test on Botrytis cinerea (beans); conditions: 100 ppm of active ingredient, lesion size 2 days after inoculation
Description: In Vivo Protective Test on Botrytis cinerea (Beans)
Solvent: 24.5 parts by weight of acetone • 24.5 parts by weight of N,N-dimethylacetamide
Emulsifier: 1 part by weight of alkylaryl polyglycol ether
To produce a suitable preparation of active compound, 1 part by weight of active compound is mixed with the stated amounts of solvent and emulsifier, and the concentrate is diluted with water to the desired concentration.
To test for preventive activity, young plants are sprayed with the preparation of active compound. After the spray coating has dried on, 2 small pieces of agar covered with growth of Botrytis cinerea are placed on each leaf. The inoculated plants are placed in a darkened chamber at 20° C. and a relative atmospheric humidity of 100%.
2 days after the inoculation, the size of the lesions on the leaves is evaluated. 0% means an efficacy which corresponds to that of the untreated control, while an efficacy of 100% means that no disease is observed.

Structure (SMILES)	Efficacy (Septoria tritici) [%]	Efficacy (Uromyces appendiculatus) [%]	Efficacy (Sphaerotheca fuliginea) [%]	Efficacy (Botrytis cinerea [1]) [%]	Efficacy (Puccinia recondita) [%]	Efficacy (Pyrenophora teres) [%]	Efficacy (Alternaria brassicae) [%]	Efficacy (Botrytis cinerea [2]) [%]
Cn1nc(C(F)F)c(C(=O)N(C2CC2)C2CC3CCCCC3C2)c1F (centres unmarked) [Example 12]	100	97	98	100	94	100	–	–
Cn1nc(C(F)F)c(C(=O)N(C2CC2)C2CCCC3CCCC32)c1F (centres unmarked) [Example 19]	96	100	100	100	100	100	100	–
Cn1cc(C(=O)N(C2CC2)C2CCCC3CCCC32)c(C(F)F)n1 (centres unmarked) [Example 20]	96	100	100	100	81	97	–	–
Cn1nc(C(F)F)c(C(=O)N(CC2CCC3CCCC3C2)C2CC2)c1F (centres unmarked) [Example 62]	100	100	100	–	98	97	–	–
Cn1nc(C(F)F)c(C(=O)N(CC2(Cc3ccccc3)CC3CCC2C3)C2CC2)c1F (centres unmarked) [Example 69]	97	96	100	–	81	97	96	–
Cn1nc(C(F)F)c(C(=O)N(CC2CC3CCC2C3)C2CC2)c1F (centres unmarked) [Example 71]	–	–	–	–	–	–	–	97
CC(C1CC2CCC1C2)N(C(=O)c1c(C(F)F)nn(C)c1F)C1CC1 (centres unmarked) [Example 93]	–	–	–	–	–	–	–	100
